Here are results for 15 molecules from US9850247B2 (Almac Discovery Limited, priority 2013, dated 2017).

The target of one data set is T1, Wee-1 kinase (Homo sapiens, UniProt P30291).
T1 construct: purchased Invitrogen PV3817
Nature of the data set: Measurement of Wee-1 kinase activity (ADP-Glo luminescent kit). Type of data set: biochemical. An outline of the steps: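 ADP-Glo luminescence reads ADP made over 1 h at RT, after an aliquot of 30 μM ATP and 2.0 μg/mL poly(Lys,Tyr 4:1) substrate. Before that, the kinase sat 30 min with inhibitor in Tris-HCl/MgCl2 buffer with BSA and DTT. IC50 came from regression of percent inhibition.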

Data set [1] relates to phospho-cdc2 (Tyr15) in HT-29 cells. Nature of the data set: Effect on Cdc2 phosphorylation at Tyr15, Cell-Based ELISA Base Kit (Method 3). Particulars: Homo sapiens, HT-29, 8 h, eight hours incubation, normalized to total cdc2, read-out: HT29 pCDC2 method 3. On the procedure: Method 3: Determining the Effect of Compounds on the Cdc2 phosphorylation at Tyr15, using a Cell-Based ELISA Base Kit (R&D Systems, KCB001)
The colorectal cancer cell line, HT-29 was purchased from the ATCC and maintained in McCoy's 5 A medium (Gibco®, Life technologies) supplemented with 10% Foetal Calf Serum (FCS).
The cells were trypsinised and counted, 100 μL of 8000 cells was seeded into each well of a clear-bottom black 96-well microplate and incubated overnight to allow adherence to the surface, at 37° C. and 5% CO2 in a cell culture incubator.
Test compounds were formulated in DMSO and diluted in cell culture medium supplemented with FCS. Grow medium was removed from cells and medium containing compounds dilutions was added to each well. The plate was returned to the incubator for an additional eight hours of incubation at 37° C. and 5% CO2.
Post incubation cells were fixed by replacing the compounds supplemented medium with 100 μL of 4% formaldehyde in 1× phosphate buffered saline (PBS), for 20 minutes at room temperature. Formaldehyde solution was removed and cells were washed three times with PBS. The Cell-Based ELISA assay (R&D Systems) was carried out immediately after cell fixation or the plate was sealed and fixed cells were stored in PBS at 4° C. until required (no more than two weeks).
To continue the assay, PBS was removed and cells were washed 3 times for 5 minutes with 200 μL of 1× wash buffer. Each wash step was carried out with gentle shaking. Following washes, 100 μL of 0.6% H2O2 in 1× wash buffer (quenching buffer) was added, plate was sealed and incubated for 20 minutes at room temperature. Post incubation cells were washes 3 times for 5 minutes with 200 μL of 1× wash buffer, with gentle shaking. 100 μL of blocking buffer was added to each well, the plate was re-sealed and incubated at room temperature for 1 h.
After blocking, cells were washed as described above. A primary antibody mixture was prepared by mixing the two primary antibodies, a rabbit monoclonal antibody for phospho-cdc2 (Tyr15) (Cell Signaling, #4539) and mouse monoclonal antibody for total cdc2 p34 (Santa Cruz Biotechnology, sc-54), diluted 1:25 and 1:50 in blocking buffer, respectively. 60 μL of primary antibody mixture was added to each well, the plate was sealed and incubated overnight at 4° C.
The primary antibodies were removed and cells were washed as previously described. 100 μL of secondary antibody mixture, containing horseradish-peroxidase (HRP)-conjugated goat anti-rabbit IgG and alkaline phosphatase (AP)-conjugated goat anti-mouse IgG, diluted 1:100 in blocking buffer, was added to each test well. The plate was re-sealed and incubated for 2 hours at room temperature.
The secondary antibodies were removed and cells washed 2 times with wash buffer, followed by 2 washes with PBS. Each wash step was carried out for 5 minutes with gentle shaking. PBS was removed and 75 μL of fluorogenic substrate for HRP (substrate F1) added to each well. The plate was sealed and incubated for 1 h at room temperature, in the dark. 75 μL of fluorogenic substrate for AP (substrate F2) was added directly to each well, plate re-sealed and incubated for additional 40 minutes at room temperature, protected from direct light.
Following incubation fluorescence from each well was read at 600 nm (signal from substrate 1, phosphorylated protein) and then at 450 nm (signal from substrate 2, total protein).
The percentage of phospho-cdc2 was calculated compared to DMSO control, normalized to the total cdc2 and plotted versus the concentration of inhibitor, using GraphPad Prism. Data was fitted using a non-linear regression analysis and EC50 values generated.

A short description of data set [2]: CLint estimates using human liver microsomes (Method 4). The class given is in vitro ADME. The conditions noted are these: pH 7.4, 1 μM compound, read-out: Mics - CLint (HLM CLint). An outline of the steps:
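Depletion measured by LC/MS/MS in MRM mode over 2–50 min after starting reactions with 1 mM NADPH. Incubations used 0.5 mg/mL human liver microsomal protein, 1 μM compound, 0.1% DMSO, pH 7.4 phosphate buffer, 37 °C. ln peak area plotted against time; the gradient gave t½ and intrinsic clearance.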

T1 sequence (P30291 whole entry): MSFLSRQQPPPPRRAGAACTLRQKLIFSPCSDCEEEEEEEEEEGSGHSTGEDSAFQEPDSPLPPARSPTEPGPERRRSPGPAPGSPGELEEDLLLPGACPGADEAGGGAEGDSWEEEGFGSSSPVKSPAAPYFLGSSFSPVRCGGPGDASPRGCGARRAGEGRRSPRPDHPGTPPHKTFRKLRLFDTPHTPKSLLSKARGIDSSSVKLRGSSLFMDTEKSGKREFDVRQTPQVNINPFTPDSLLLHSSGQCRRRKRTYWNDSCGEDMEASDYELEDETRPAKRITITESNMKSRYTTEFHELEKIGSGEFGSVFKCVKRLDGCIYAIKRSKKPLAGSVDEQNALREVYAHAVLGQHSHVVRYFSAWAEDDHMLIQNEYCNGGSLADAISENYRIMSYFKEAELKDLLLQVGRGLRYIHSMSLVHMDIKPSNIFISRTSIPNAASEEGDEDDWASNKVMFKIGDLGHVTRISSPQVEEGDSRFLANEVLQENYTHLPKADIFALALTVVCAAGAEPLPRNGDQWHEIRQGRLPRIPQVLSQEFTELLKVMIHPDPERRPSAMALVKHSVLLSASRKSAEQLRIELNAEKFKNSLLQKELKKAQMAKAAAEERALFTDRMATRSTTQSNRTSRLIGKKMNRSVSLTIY

As a reminder, the IC50 is the midpoint of a concentration-inhibition curve. For `C[C@@H]1CN(c2ccc(Nc3ncc4c(n3)N(C)CN(c3c(Cl)cccc3Cl)C4=O)cc2C(C)(C)O)CCN1` [Example 140, (R)-3-(2,6-dichlorophenyl)-7-((3-(2-hydroxypropan-2-yl)-4-(3-methylpiperazin-1-yl)phenyl)amino)-1-methyl-2,3dihydropyrimido [4,5-d]pyrimidin-4(1H)-one], on Wee-1 kinase, the IC50 was 10 to 100 nM. Besides, the EC50 in data set [1] was at least 1000 nM. Further, in data set [2], the microsomal CLint at 1 μM was 15 to 50 µL/min/mg.

Regarding `C[C@@H]1CN(c2ccc(Nc3ncc4c(n3)N(C)CN(c3c(Cl)cccc3Cl)C4=O)cc2C(O)C(F)F)CCN1` (stereo partly drawn) [Example 134, 3-(2,6-dichlorophenyl)-7-((3-(2,2-difluoro-1-hydroxyethyl)-4-((R)-3-methylpiperazin-1-yl)phenyl)amino)-1-methyl-2,3-dihydropyrimido[4,5-d]pyrimidin-4(1H)-one], the IC50 on Wee-1 kinase was at most 10 nM. In data set [1], the EC50 was 100 to 1000 nM. Further, the microsomal CLint at 1 μM in data set [2] was at most 15 µL/min/mg.

In the case of `COC[C@H]1CN(c2ccc(Nc3ncc4c(n3)N(C)CN(c3c(F)cccc3Cl)C4=O)cc2)CCN1` [Example 126, (R)-3-(2-chloro-6-fluorophenyl)-7-((4-(3-(methoxymethyl)piperazin-1-yl)phenyl)amino)-1-methyl-2,3-dihydropyrimido[4,5-d]pyrimidin-4(1H)-one], the IC50 on Wee-1 kinase was in the range of 10 to 100 nM. In data set [1], the EC50 is at least 1000 nM. In addition, in data set [2], the microsomal CLint at 1 μM is at most 15 µL/min/mg.

In the case of `C[C@@H]1CN(c2ccc(Nc3ncc4c(n3)N(C)CN(c3c(Cl)cccc3Cl)C4=O)cc2CO)CCN1C` [Example 46, (R)-3-(2,6-dichlorophenyl)-7-((4-(3,4-dimethylpiperazin-1-yl)-3-(hydroxymethyl)phenyl)amino)-1-methyl-2,3-dihydropyrimido[4,5-d]pyrimidin-4(1H)-one], the IC50 on Wee-1 kinase was at most 10 nM. Besides, the EC50 in data set [1] lay within 100 to 1000 nM. The microsomal CLint at 1 μM in data set [2] was at most 15 µL/min/mg.

With `CN1CCN(c2ccc(Nc3ncc4c(n3)N(C)CN(c3c(Cl)cccc3Cl)C4=O)cc2CO)CC1` [Example 33, 3-(2,6-dichlorophenyl)-7-((3-(hydroxymethyl)-4-(4-methylpiperazin-1-yl)phenyl)amino)-1-methyl-2,3-dihydropyrimido[4,5-d]pyrimidin-4(1H)-one], the IC50 at Wee-1 kinase was at most 10 nM. The EC50 in data set [1] was 100 to 1000 nM. The microsomal CLint at 1 μM in data set [2] was 15 to 50 µL/min/mg.

For the molecule `CN1CN(c2c(Cl)cccc2Cl)C(=O)c2cnc(Nc3ccc(N4CCNC(C)(C)C4)cc3)nc21` [Example 96, 3-(2,6-dichlorophenyl)-7-((4-(3,3-dimethylpiperazin-1-yl)phenyl)amino)-1-methyl-2,3-dihydropyrimido[4,5-d]pyrimidin-4(1H)-one], the IC50 at Wee-1 kinase was at most 10 nM. For the same molecule, in data set [1], the EC50 was in the range of 100 to 1000 nM. Further, the microsomal CLint at 1 μM in data set [2] is 15 to 50 µL/min/mg.

Consider `CN(C)CC(=O)N1CCN(c2ccc(Nc3ncc4c(n3)N(C)CN(c3c(Cl)cccc3Cl)C4=O)cc2)CC1` [Example 123, 3-(2,6-dichlorophenyl)-7-((4-(4-(2-(dimethylamino)acetyl)piperazin-1-yl)phenyl)amino)-1-methyl-2,3-dihydropyrimido[4,5-d]pyrimidin-4(1H)-one], for which the IC50 on Wee-1 kinase was at most 10 nM. The EC50 in data set [1] lay within 100 to 1000 nM. The microsomal CLint at 1 μM in data set [2] was at least 50 µL/min/mg.

`C[C@@H]1CN(c2ccc(Nc3ncc4c(n3)N(C)CN(c3c(Cl)cccc3Cl)C4=O)cc2)C[C@H](C)N1` [Example 83, 3-(2,6-dichlorophenyl)-7-((4-((3R,5S)-3,5-dimethylpiperazin-1-yl)phenyl)amino)-1-methyl-2,3-dihydropyrimido[4,5-d]pyrimidin-4(1H)-one]: the half-maximal inhibitory concentration (IC50) at Wee-1 kinase is at most 10 nM. For the same molecule, in data set [1], the EC50 fell in the range of 100 to 1000 nM. Moreover, in data set [2], the microsomal CLint at 1 μM is 15 to 50 µL/min/mg.

As for `CNCc1cc(Nc2ncc3c(n2)N(C)CN(c2c(Cl)cccc2Cl)C3=O)ccc1N1C[C@@H](C)O[C@@H](C)C1` [Example 148, 3-(2,6-dichlorophenyl)-7-((4-((2S,6R)-2,6-dimethylmorpholino)-3-((methylamino)methyl)phenyl)amino)-1-methyl-2,3-dihydropyrimido[4,5-d]pyrimidin-4(1H)-one], the IC50 on Wee-1 kinase was at most 10 nM. Further, the EC50 in data set [1] is 100 to 1000 nM. Also, the microsomal CLint at 1 μM in data set [2] was 15 to 50 µL/min/mg.

Take `C[C@@H]1CN(c2ccc(Nc3ncc4c(n3)N(C)CN(c3c(Cl)cccc3Cl)C4=O)cc2CO)C[C@H](C)N1` [Example 158, 3-(2,6-dichlorophenyl)-7-((4-((3S,5R)-3,5-dimethylpiperazin-1-yl)-3-(hydroxymethyl)phenyl)amino)-1-methyl-2,3-dihydropyrimido[4,5-d]pyrimidin-4(1H)-one]: the IC50 at Wee-1 kinase is at most 10 nM. The EC50 in data set [1] was in the range of 100 to 1000 nM. Further, the microsomal CLint at 1 μM in data set [2] was at most 15 µL/min/mg.

For `CN1CCC(c2ccc(Nc3ncc4c(n3)N(C)CN(c3c(Cl)cccc3Cl)C4=O)cc2CO)CC1` [Example 165, 3-(2,6-dichlorophenyl)-7-((3-(hydroxymethyl)-4-(1-methylpiperidin-4-yl)phenyl)amino)-1-methyl-2,3-dihydropyrimido[4,5-d]pyrimidin-4(1H)-one], the IC50 on Wee-1 kinase was at most 10 nM. In data set [1], the EC50 is 100 to 1000 nM. Besides, in data set [2], the microsomal CLint at 1 μM is at most 15 µL/min/mg.

On to `CNCc1cc(Nc2ncc3c(n2)N(C)CN(c2c(Cl)cccc2Cl)C3=O)ccc1N1CCN(C(C)=O)CC1` [Example 143, 7-((4-(4-acetylpiperazin-1-yl)-3-((methylamino)methyl)phenyl)amino)-3-(2,6-dichlorophenyl)-1-methyl-2,3-dihydropyrimido[4,5-d]pyrimidin-4(1H)-one], for which, on Wee-1 kinase, the IC50 is at most 10 nM. Moreover, in data set [1], the EC50 was at least 1000 nM. Further, the microsomal CLint at 1 μM in data set [2] is at most 15 µL/min/mg.

Take `CN1Cc2cc(Nc3ncc4c(n3)N(C)CN(c3c(Cl)cccc3Cl)C4=O)ccc2C2(CC2)C1` [Example 76, 3-(2,6-dichlorophenyl)-1-methyl-7-((2′-methyl-2′,3′-dihydro-1′H-spiro[cyclopropane-1,4′-isoquinolin]-7′-yl)amino)-2,3-dihydropyrimido[4,5-d]pyrimidin-4(1H)-one]: the IC50 on Wee-1 kinase is at most 10 nM. In addition, the EC50 in data set [1] lay in the range of 100 to 1000 nM. In data set [2], the microsomal CLint at 1 μM was at least 50 µL/min/mg.

As to `CN(C)Cc1cc(Nc2ncc3c(n2)N(C)CN(c2c(Cl)cccc2Cl)C3=O)ccc1N1CCS(=O)(=O)CC1` [Example 149, 3-(2,6-dichlorophenyl)-7-((3-((dimethylamino)methyl)-4-(1,1-dioxidothiomorpholino)phenyl)amino)-1-methyl-2,3-dihydropyrimido[4,5-d]pyrimidin-4(1H)-one], the IC50 on Wee-1 kinase was at most 10 nM. In data set [1], the EC50 lay in the range of 100 to 1000 nM. In addition, the microsomal CLint at 1 μM in data set [2] is at most 15 µL/min/mg.

As to `CN1CN(c2c(Cl)cccc2Cl)C(=O)c2cnc(Nc3ccc(N4CC5CCC(C4)N5C)cc3)nc21` [Example 88, 3-(2,6-dichlorophenyl)-1-methyl-7-((4-(8-methyl-3,8-diazabicyclo[3.2.1]octan-3-yl)phenyl)amino)-2,3-dihydropyrimido[4,5-d]pyrimidin-4(1H)-one], the IC50 at Wee-1 kinase was at most 10 nM. For the same molecule, the EC50 in data set [1] lay within 100 to 1000 nM. The microsomal CLint at 1 μM in data set [2] was 15 to 50 µL/min/mg.
